From US7713994B2 (Wyeth LLC, priority 2005, dated 2010)

What follows are molecules tested against T1, cyclin D1/cdk 4 enzyme (Homo sapiens, UniProt P11802) (assay: CDK4 ELISA kinase assay (phospho-Rb ser 795 detection)). Conditions: In Vitro Enzyme Assay, cyclin D1/cdk 4, read-out: CDK4 IC50.
T1 construct: made in house; host or cells: Sf9 insect cells, recombinant baculovirus
T1 sequence (P11802 whole entry, species assumed): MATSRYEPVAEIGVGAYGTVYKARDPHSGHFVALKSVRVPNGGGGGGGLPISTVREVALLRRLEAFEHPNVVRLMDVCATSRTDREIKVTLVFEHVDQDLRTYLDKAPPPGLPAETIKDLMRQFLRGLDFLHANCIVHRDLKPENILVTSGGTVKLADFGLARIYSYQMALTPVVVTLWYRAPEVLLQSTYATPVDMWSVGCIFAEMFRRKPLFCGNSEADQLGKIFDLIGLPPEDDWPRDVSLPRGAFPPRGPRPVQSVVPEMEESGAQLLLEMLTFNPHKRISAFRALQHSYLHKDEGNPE
T1 sequence (P24385 whole entry partner, species assumed): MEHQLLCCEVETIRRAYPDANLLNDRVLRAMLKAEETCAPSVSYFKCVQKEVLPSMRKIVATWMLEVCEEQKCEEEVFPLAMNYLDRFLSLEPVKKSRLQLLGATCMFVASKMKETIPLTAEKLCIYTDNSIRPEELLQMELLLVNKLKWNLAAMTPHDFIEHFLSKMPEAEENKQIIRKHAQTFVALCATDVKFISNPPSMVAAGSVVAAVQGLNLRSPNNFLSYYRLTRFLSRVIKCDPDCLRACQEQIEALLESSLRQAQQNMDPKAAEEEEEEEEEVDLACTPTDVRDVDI
Assay type: biochemical
Summary of the method: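 ELISA format: plate-bound GST-Rb, 200 μM ATP, Sf9 cyclin/CDK enzyme, 1 h at 30° C; then anti-pRb Ser795 primary overnight at 4° C, HRP secondary, TMB. IC50 after no-substrate background subtraction.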
`N#CCc1ccc(NC=C2C(=O)NC(=O)c3ccc(-c4cccc(C#N)c4)cc32)cc1` [Example 719, 3-{4-[(4-Cyanomethyl-phenylamino)-methylene]-1,3-dioxo-1,2,3,4-tetrahydro-isoquinolin-6-yl}-benzonitrile] showed an IC50 of 27.5 µM.
For `N#CCc1ccc(NC=C2C(=O)NC(=O)c3ccc(-c4cccc(F)c4)cc32)cc1` [Example 705, (4-{[6-(3-Fluoro-phenyl)-1,3-dioxo-2,3-dihydro-1H-isoquinolin-4-ylidenemethyl]-amino}-phenyl)-acetonitrile], the IC50 was 12.6 µM.
`N#CCc1ccc(NC=C2C(=O)NC(=O)c3ccc(-c4ccc(C(=O)O)cc4)cc32)cc1` [Example 707, 4-{4-[(4-Cyanomethyl-phenylamino)-methylene]-1,3-dioxo-1,2,3,4-tetrahydro-isoquinolin-6-yl}-benzoic acid] showed an IC50 of 3.8 µM.
`O=C1NC(=O)c2ccc(-c3cccc4ccccc34)cc2C1=CNCc1ccc(O)c(O)c1` [Example 640, 4-[(3,4-Dihydroxy-benzylamino)-methylene]-6-naphthalen-1-yl-4H-isoquinoline-1,3-dione] gave an IC50 of 21.9 µM.
With `CN1CCN(c2ccc(NC=C3C(=O)NC(=O)c4ccc(-c5cc6ccccc6s5)cc43)cc2)CC1` [Example 670, 6-Benzo[b]thiophen-2-yl-4-{[4-(4-methyl-piperazin-1-yl)-phenylamino]-methylene}-4H-isoquinoline-1,3-dione] the IC50 was 39.8 µM.
`O=C1NC(=O)c2ccc(-c3ccccc3C(F)(F)F)cc2C1=CNCc1ccc(O)c(O)c1` [Example 774, 4-[(3,4-Dihydroxy-benzylamino)-methylene]-6-(2-trifluoromethyl-phenyl)-4H-isoquinoline-1,3-dione] gave an IC50 of 1.4 µM.
In the case of `CN1CCN(c2ccc(NC=C3C(=O)NC(=O)c4ccc(C=CCc5ccccc5O)cc43)cc2)CC1` [Example 801, 6-[3-(2-Hydroxy-phenyl)-propenyl]-4-{[4-(4-methyl-piperazin-1-yl)-phenylamino]-methylene}-4H-isoquinoline-1,3-dione], the IC50 is reported as 15.5 µM.
`N#CCc1ccc(NC=C2C(=O)NC(=O)c3ccc(C=Cc4ccccc4)cc32)cc1` [Example 650, {4-[(1,3-Dioxo-6-styryl-2,3-dihydro-1H-isoquinolin-4-ylidenemethyl)-amino]-phenyl}-acetonitrile] showed an IC50 of 16.6 µM.
`N#CCc1ccc(NC=C2C(=O)NC(=O)c3ccc(-c4ccc(Cl)cc4)cc32)cc1` [Example 712, (4-{[6-(4-Chloro-phenyl)-1,3-dioxo-2,3-dihydro-1H-isoquinolin-4-ylidenemethyl]-amino}-phenyl)-acetonitrile] gave an IC50 of 7.9 µM.
With `COc1ccc(C=Cc2ccc3c(c2)C(=CNc2ccc(N4CCN(C)CC4)cc2)C(=O)NC3=O)cc1` [Example 732, 6-[2-(4-Methoxy-phenyl)-vinyl]-4-{[4-(4-methyl-piperazin-1-yl)-phenylamino]-methylene}-4H-isoquinoline-1,3-dione] the IC50 was 25.8 µM.
Work on `CC(=O)c1cccc(-c2ccc3c(c2)C(=CNCc2ccc(S(N)(=O)=O)cc2)C(=O)NC3=O)c1` [Example 747, 4-({[6-(3-Acetyl-phenyl)-1,3-dioxo-2,3-dihydro-1H-isoquinolin-4-ylidenemethyl]-amino}-methyl)-benzenesulfonamide] yielded an IC50 of 14.5 µM.
`O=C1NC(=O)c2ccccc2C1=CNc1ccc(N2CCN(CCN3CCCC3)CC2)cc1` [Example 572, 4-({4-[4-(2-Pyrrolidin-1-yl-ethyl)-piperazin-1-yl]-phenylamino}-methylene)-4H-isoquinoline-1,3-dione] showed an IC50 of 37 µM.
With `O=C1NC(=O)c2ccccc2C1=CNc1ccc(N2CCN(C3CCCC3)CC2)cc1` [Example 601, 4-{[4-(4-Cyclopentyl-piperazin-1-yl)-phenylamino]-methylene}-4H-isoquinoline-1,3-dione] the IC50 was 12 µM.
`O=C1NC(=O)c2ccccc2C1=CNc1ccc(N2CCN(CC3CCC3)CC2)cc1` [Example 602, 4-{[4-(4-Cyclobutylmethyl-piperazin-1-yl)-phenylamino]-methylene}-4H-isoquinoline-1,3-dione] was tested, and the IC50 was 21.5 µM.
`C=CCN1CCN(c2ccc(NC=C3C(=O)NC(=O)c4ccccc43)cc2)CC1` [Example 597, 4-{[4-(4-Allyl-piperazin-1-yl)-phenylamino]-methylene}-4H-isoquinoline-1,3-dione] gave an IC50 of 39.2 µM.
`CCN1CCN(c2ccc(NC=C3C(=O)NC(=O)c4ccccc43)cc2)CC1` [Example 595, 4-{[4-(4-Ethyl-piperazin-1-yl)-phenylamino]-methylene}-4H-isoquinoline-1,3-dione] was tested, and the IC50 was 27.4 µM.
Molecule `N#CCc1ccc(NC=C2C(=O)NC(=O)c3ccc(-c4cc[nH]c4)cc32)cc1` [Example 631, (4-{[1,3-Dioxo-6-(1H-pyrrol-3-yl)-2,3-dihydro-1H-isoquinolin-4-ylidenemethyl]-amino}-phenyl)-acetonitrile] has an IC50 of 4.2 µM.
Work on `O=C1NC(=O)c2ccccc2C1=CNc1ccc(N2CCN(CCO)CC2)cc1` [Example 598, 4-({4-[4-(2-Hydroxy-ethyl)-piperazin-1-yl]-phenylamino}-methylene)-4H-isoquinoline-1,3-dione] yielded an IC50 of 33.1 µM.
With `CN1CCN(c2ccc(NC=C3C(=O)NC(=O)c4ccc(-c5ccccc5F)cc43)cc2)CC1` [Example 684, 6-(2-Fluoro-phenyl)-4-{[4-(4-methyl-piperazin-1-yl)-phenylamino]-methylene}-4H-isoquinoline-1,3-dione] the IC50 was 12.4 µM.
Molecule `CN1CCN(c2ccc(NC=C3C(=O)NC(=O)c4ccc(C=Cc5ccc6ccccc6c5)cc43)cc2)CC1` [Example 674, 4-{[4-(4-Methyl-piperazin-1-yl)-phenylamino]-methylene}-6-(2-naphthalen-2-yl-vinyl)-4H-isoquinoline-1,3-dione] has an IC50 of 11.7 µM.
`N#CCc1ccc(NC=C2C(=O)NC(=O)c3ccc(-c4ccc(-c5ccccc5)cc4)cc32)cc1` [Example 720, {4-[(6-Biphenyl-4-yl-1,3-dioxo-2,3-dihydro-1H-isoquinolin-4-ylidenemethyl)-amino]-phenyl}-acetonitrile] showed an IC50 of 21.7 µM.
In the case of “4-({[6-(3-Cyano-phenyl)-1,3-dioxo-2,3-dihydro-1H-isoquinolin-4-ylidenemethyl]-amino}-methyl)-benzenesulfonamide [Example 756]”, the IC50 is reported as 20.2 µM.
`O=C1NC(=O)c2ccccc2C1=CNCCc1ccc(O)c(O)c1` [Example 544, 4-{[2-(3,4-Dihydroxy-phenyl)-ethylamino]-methylene}-4H-isoquinoline-1,3-dione] gave an IC50 of 16.2 µM.
`Cc1ccccc1-c1ccc2c(c1)C(=CNCc1ccc(O)c(O)c1)C(=O)NC2=O` [Example 783, 4-[(3,4-Dihydroxy-benzylamino)-methylene]-6-o-tolyl-4H-isoquinoline-1,3-dione] gave an IC50 of 1.23 µM.
`CN1CCN(c2ccc(NC=C3C(=O)NC(=O)c4ccc(-c5cccc(C(=O)O)c5)cc43)cc2)CC1` [Example 686, 3-(4-{[4-(4-Methyl-piperazin-1-yl)-phenylamino]-methylene}-1,3-dioxo-1,2,3,4-tetrahydro-isoquinolin-6-yl)-benzoic acid] was tested, and the IC50 was 6.4 µM.
For `NS(=O)(=O)c1ccc(CNC=C2C(=O)NC(=O)c3ccc(-c4ccc(-c5ccccc5)cc4)cc32)cc1` [Example 757, 4-{[(6-Biphenyl-4-yl-1,3-dioxo-2,3-dihydro-1H-isoquinolin-4-ylidenemethyl)-amino]-methyl}-benzenesulfonamide], the IC50 was 31.1 µM.
In the case of `CC(C)c1cccc(-c2ccc3c(c2)C(=CNCc2ccc(S(N)(=O)=O)cc2)C(=O)NC3=O)c1` [Example 762, 4-({[6-(3-Isopropyl-phenyl)-1,3-dioxo-2,3-dihydro-1H-isoquinolin-4-ylidenemethyl]-amino}-methyl)-benzenesulfonamide], the IC50 is reported as 33.6 µM.
`CC(=O)c1ccccc1-c1ccc2c(c1)C(=CNCc1ccc(O)c(O)c1)C(=O)NC2=O` [Example 777, 6-(2-Acetyl-phenyl)-4-[(3,4-dihydroxy-benzylamino)-methylene]-4H-isoquinoline-1,3-dione] was tested, and the IC50 was 3.78 µM.
`CCN(CC)CCNC(=O)c1ccc(NC=C2C(=O)NC(=O)c3ccccc32)cc1` [Example 543, N-(2-Diethylamino-ethyl)-4-[(1,3-dioxo-2,3-dihydro-1H-isoquinolin-4-ylidenemethyl)-amino]-benzamide] was tested, and the IC50 was 42.7 µM.
`O=C1NC(=O)c2ccccc2C1=CNc1ccc(O)cc1C(=O)O` [Example 562, 2-[(1,3-Dioxo-2,3-dihydro-1H-isoquinolin-4-ylidenemethyl)-amino]-5-hydroxy-benzoic acid] was tested, and the IC50 was 15.9 µM.
`O=C1NC(=O)c2ccccc2C1=CNc1c(O)cccc1O` [Example 565, 4-[(2,6-Dihydroxy-phenylamino)-methylene]-4H-isoquinoline-1,3-dione] was tested, and the IC50 was 38 µM.
In the case of `NS(=O)(=O)c1ccc(CNC=C2C(=O)NC(=O)c3ccc(-c4cccc(C(F)(F)F)c4)cc32)cc1` [Example 744, 4-({[1,3-Dioxo-6-(3-trifluoromethyl-phenyl)-2,3-dihydro-1H-isoquinolin-4-ylidenemethyl]-amino}-methyl)-benzenesulfonamide], the IC50 is reported as 48.6 µM.
In the case of `COc1ccc(NC=C2C(=O)NCc3cc(Br)ccc32)cc1O` [Example 862, 7-Bromo-4-[(3-hydroxy-4-methoxy-phenylamino)-methylene]-1,4-dihydro-2H-isoquinolin-3-one], the IC50 is reported as 31 µM.
Work on `CN1CCN(c2ccc(NC=C3C(=O)NC(=O)c4ccc(-c5ccc6ccccc6c5)cc43)cc2)CC1` [Example 668, 4-{[4-(4-Methyl-piperazin-1-yl)-phenylamino]-methylene}-6-naphthalen-2-yl-4H-isoquinoline-1,3-dione] yielded an IC50 of 21.9 µM.
In the case of `NS(=O)(=O)c1ccc(CNC=C2C(=O)NC(=O)c3ccc(C=CCn4ccnc4)cc32)cc1` [Example 657, 4-({[6-(3-Imidazol-1-yl-propenyl)-1,3-dioxo-2,3-dihydro-1H-isoquinolin-4-ylidenemethyl]-amino}-methyl)-benzenesulfonamide], the IC50 is reported as 2.2 µM.
